The subject of this assay is zebrafish accordion mutant (acc) larvae heart. As to the kind of experiment: In-vivo heart contractility measurements in zebrafish acc mutant larvae. Details: species or system zebrafish (Danio rerio). Conditions: 1 nM, 90 minutes. As for the experimental part:
Ouabain, bufalin, digoxin, acetylcholine, carbachol, […] (pp2) and U0126 (1,4-diamino-2,3-dicyano-1,4-bis(2-aminophenylthio)butadiene) were purchased from Sigma-Aldrich Inc., Israel. The compounds were dissolved in egg water (0.3 g Instant Ocean Salt in distilled water) to a final selected concentration, as specified in the following examples. The larvae in 20 μL of E3 medium were transferred to the egg water solution containing one or two of the above specified drugs of choice, and incubated for 60-90 minutes at 28° C.
Filming process Zebrafish larvae heart imaging was performed using an Olympus CKX41 (Japan) […] microscope with ×10 or ×20 magnification, and integrated incandescent illumination. A FastCam imi-tech (Korea) high speed digital camera with 640×480 pixel gray scale image sensor was mounted on the microscope, using ImCam software (IMI Technology, Co. Ltd) for high speed video recording. The larvae were anesthetized by placing them in filming/anesthetizing medium. Each larva in 0.5 ml filming/anesthetizing medium was transferred to a 96-well tissue culture plate at room temperature and sequential images of the heart were obtained, with the larvae positioned on their side, at 80 fps during 10 seconds with a shutter speed of 0.016 seconds.
Physiological parameters of cardiovascular performance, as indicated hereinbelow, were evaluated in the zebrafish larvae. […] Sequential still frames were analyzed to capture ventricular end-systole and end-diastole images. […] The Ejection Fraction (EF) was determined by an independent estimate of ventricular volume. […] EF was then calculated according to the equation: EF=(EDV-ESV)/EDV*100. Heart rate (HR) was measured in beats per minute. Cardiac output (CO) was calculated according to the equation: CO=(EDV-ESV)*HR. A minimum of five sequential pairs of systolic and diastolic cycles were measured and analyzed in 9-12 larvae for each treatment.

Regarding `C[C@@H]1O[C@@H](O[C@H]2C[C@@H](O)[C@]3(CO)[C@H]4[C@H](O)C[C@]5(C)[C@@H](C6=CC(=O)OC6)CC[C@]5(O)[C@@H]4CC[C@]3(O)C2)[C@H](O)[C@H](O)[C@H]1O` [ouabain, 3-(alpha-L-Rhamnopyranosyloxy)-1beta,5beta,11alpha,14,19-pentahydroxy-5beta-card-20(22)-enolide], the “effect on heart contractility” value was “no effect on heart contractility”.

For the origin of these results see patent US20180369264A1, “COMBINATION OF A CARDIAC STEROID AND AN AKT INHIBITOR FOR THE TREATMENT OF CARDIOVASCULAR DISEASES AND DISORDERS” (YISSUM RESEARCH DEVELOPMENT COMPANY OF THE HEBREW …, priority 2015, published 2018).
